The values that follow come from PMC7178833, “Preparation, carbonic anhydrase enzyme inhibition and antioxidant activity of novel 7-amino-3,4-dihydroquinolin-2(1H)-one derivatives incorporating mono or dipeptide moiety” (Journal of Enzyme Inhibition and Medicinal Chemistry, 2020).

The target in data set [1] is hCA XII (Homo sapiens, UniProt O43570). Nature of the data set: stopped flow CO2 hydrase assay, hCA XII. Conditions: mean from three different assays. It is filed as biochemical. Here is the method:
(§1) An Applied Photophysics Stopped-Flow instrument has been used for assaying the CA catalysed CO2 hydration activity by using method of Khalifah[21]. Phenol red (at a concentration of 0.2 mM) has been used as indicator, working at the absorbance maximum of 557 nm, with 20 mM HEPES (pH 7.5) as buffer and 20 mM Na2SO4 (for maintaining constant the ionic strength), following the initial rates of the CA-catalysed CO2 hydration reaction for a period of 10–100 s. The CO2 concentrations ranged from 1.7 to 17 mM for the determination of the kinetic parameters and inhibition constants. […] The uncatalysed rates were determined in the same manner and subtracted from the total observed rates. Stock solutions of inhibitor (0.1 mM) were prepared in distilled–deionised water and dilutions up to 0.01 nM were done thereafter with the assay buffer. Inhibitor and enzyme solutions were pre-incubated together for 15 min at room temperature prior to assay, in order to allow for the formation of the E–I complex. The inhibition constants were obtained by non-linear least-square methods using PRISM (www.graphpad.com), and non-linear least squares methods, values representing the mean of at least three different determinations, as described earlier by us[22–27].

For data set [2], the target named is hCA II (Homo sapiens, UniProt P00918). The data set is described as follows: stopped flow CO2 hydrase assay, hCA II. The class given is biochemical. Particulars: mean from three different assays, read-out: Ki hCAII. Here is the method: as §1
Data set [3] deals with hCA IX (Homo sapiens, UniProt Q16790). Nature of the data set: stopped flow CO2 hydrase assay, hCA IX. It is filed as biochemical. Particulars: mean from three different assays. Here is the method:
as §1

The target in data set [4] is hCA I (Homo sapiens, UniProt P00915). The data set is described as follows: stopped flow CO2 hydrase assay, hCA I. It is filed as biochemical. Conditions: mean from three different assays. How it is done: as §1
hCA I, sequence (P00915 whole entry): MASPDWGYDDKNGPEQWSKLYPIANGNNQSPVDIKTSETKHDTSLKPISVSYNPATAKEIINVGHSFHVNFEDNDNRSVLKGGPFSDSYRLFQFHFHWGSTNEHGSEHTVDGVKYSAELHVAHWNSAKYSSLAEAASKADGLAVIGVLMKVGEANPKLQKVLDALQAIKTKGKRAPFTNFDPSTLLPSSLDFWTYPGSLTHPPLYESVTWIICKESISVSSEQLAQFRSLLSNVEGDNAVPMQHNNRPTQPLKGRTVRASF
Data set [5] in a line: DPPH radical scavenging activity. How it is done:
Antioxidant activity was determined based on the ability of the antioxidants to act as radical scavengers towards the stable free radical, 1,1-diphenyl-2-picrylhydrazyl (DPPH). As detailed by Yang et al[28], 1 ml of antioxidant solution (solubilised in ethanol) was added to 3 ml of a 0.1 mM ethanolic solution of DPPH. After 30 min at ambient temperature in darkness, absorbance readings were taken at 517 nm. Inhibition (%) was calculated using the equation [1 – (As−Ao)/Ab]×100 where As was the absorbance reading for samples containing antioxidant, Ao was the absorbance of the antioxidant in pure methanol and Ab corresponded to the absorbance of the DPPH solution.
The antioxidant activity of the compounds was determined based on the ability of the antioxidants to act as radical scavengers towards the stable free radical, 1,1-diphenyl-2-picrylhydrazyl (DPPH)[28].

hCA XII, sequence (O43570 25-354): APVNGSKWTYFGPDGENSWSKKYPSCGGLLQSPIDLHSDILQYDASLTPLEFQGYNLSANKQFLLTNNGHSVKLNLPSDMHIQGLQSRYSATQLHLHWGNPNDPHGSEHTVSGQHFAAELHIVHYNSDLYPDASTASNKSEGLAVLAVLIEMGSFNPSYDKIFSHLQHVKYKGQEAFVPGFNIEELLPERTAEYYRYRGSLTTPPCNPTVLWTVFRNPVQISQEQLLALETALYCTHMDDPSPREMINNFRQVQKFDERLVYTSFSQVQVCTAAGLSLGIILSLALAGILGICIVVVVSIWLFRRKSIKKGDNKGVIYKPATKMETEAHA

With `C[C@@H](NC(=O)OC(C)(C)C)C(=O)Nc1ccc2c(c1)NC(=O)CC2` (stereo in doubt) [Compound 1, Tert-butyl (R)-(1-oxo-1-((2-oxo-1,2,3,4-tetrahydroquinolin-7-yl)amino)propan-2-yl)carbamate], the melting point lay within 197 to 198 °C. Also, in data set [1], affinity was put at a Ki of 2 µM. Further, the Ki in data set [2] is more than 100 µM. In data set [3], this compound returned a Ki of 86.8 µM. Besides, the Ki in data set [4] is more than 100 µM. The “Antioxidant activity, %” value in data set [5] (12.5 μg/ml) came to 3.8%. In addition, the “Antioxidant activity, %” value in data set [5] (25 μg/ml) came to 2.2%. Besides, the “Antioxidant activity, %” value in data set [5] (37.5 μg/ml) is reported as 2.5%. In data set [5] (62.5 μg/ml), the “Antioxidant activity, %” value is given as 1.6%. The “Antioxidant activity, %” value in data set [5] (125 μg/ml) stood at 0.6%.
Consider `Cc1c(C)c2c(c(C)c1O)CC[C@@](C)(CCC[C@H](C)CCC[C@H](C)CCCC(C)C)O2` [α-Toc., α-tocopherol, reference compound], for which the “Antioxidant activity, %” value in data set [5] (12.5 μg/ml) stood at 62.9%; in data set [5] (25 μg/ml), 63.4%; in data set [5] (37.5 μg/ml) it was 68.4%; in data set [5] (62.5 μg/ml), 72.8%; in data set [5] (125 μg/ml), 74.0%.
In the case of `CC(C)(C)OC(=O)N[C@H](Cc1ccccc1)C(=O)Nc1ccc2c(c1)NC(=O)CC2` (stereo in doubt) [Compound 2, Tert-butyl (R)-(1-oxo-1-((2-oxo-1,2,3,4-tetrahydroquinolin-7-yl)amino)-3-phenylpropan-2-yl)carbamate], the melting point is 180 to 181 °C. This compound also came in with a Ki in data set [1] of 3.8 µM. In addition, the Ki in data set [2] was more than 100 µM. Also, the Ki in data set [3] amounted to 41.2 µM. The Ki in data set [4] was more than 100 µM. For the same compound, in data set [5] (12.5 μg/ml), the “Antioxidant activity, %” value was found to be 3.1%. Also, in data set [5] (25 μg/ml), the “Antioxidant activity, %” value turned out to be 2.2%. In addition, the “Antioxidant activity, %” value in data set [5] (37.5 μg/ml) was determined as 0.0%. In addition, the “Antioxidant activity, %” value in data set [5] (62.5 μg/ml) was 0.9%. For the same compound, the “Antioxidant activity, %” value in data set [5] (125 μg/ml) is given as 0.6%.
In the case of “Benzyl ((R)-1-oxo-1-(((S)-1-oxo-1-((2-oxo-1,2,3,4-tetrahydroquinolin-6-yl)amino)-3-phenylpropan-2-yl)amino)-3-phenylpropan-2-yl)carbamate [Compound 6]”, the inhibitory constant (Ki) in data set [1] is 8.6 µM; in data set [2] it was more than 100 µM; in data set [3], 47.6 µM; in data set [4], more than 100 µM. The “Antioxidant activity, %” value came out at 1.9% in data set [5] (12.5 μg/ml), 6.3% in data set [5] (25 μg/ml), 8.8% in data set [5] (37.5 μg/ml) and 16.4% in data set [5] (62.5 μg/ml).
On to `COc1ccc(O)c(C(C)(C)C)c1` [BHA, reference compound], for which the “Antioxidant activity, %” value was found to be 61.1% in data set [5] (12.5 μg/ml); 63.0% in data set [5] (25 μg/ml); 67.5% in data set [5] (37.5 μg/ml); 71.0% in data set [5] (62.5 μg/ml); 72.4% in data set [5] (125 μg/ml).
`CSCC[C@H](NC(=O)OCc1ccccc1)C(=O)Nc1ccc2c(c1)NC(=O)CC2` (stereo in doubt) [Compound 5, Benzyl (S)-(4-(methylthio)-1-oxo-1-((2-oxo-1,2,3,4-tetrahydroquinolin-7-yl)amino)butan-2-yl)carbamate] yielded a melting point of 137 to 138 °C. Further, in data set [1], the Ki amounted to 7 µM. In addition, in data set [2], the Ki is more than 100 µM. In addition, in data set [3], the Ki was 37.7 µM. In addition, the Ki in data set [4] is more than 100 µM. The “Antioxidant activity, %” value in data set [5] (12.5 μg/ml) came out at 2.8%. The “Antioxidant activity, %” value in data set [5] (25 μg/ml) stood at 1.9%. In addition, the “Antioxidant activity, %” value in data set [5] (37.5 μg/ml) was found to be 1.9%. Also, the “Antioxidant activity, %” value in data set [5] (62.5 μg/ml) stood at 2.8%. The “Antioxidant activity, %” value in data set [5] (125 μg/ml) is given as 2.8%.
`CSCC[C@H](NC(=O)OC(C)(C)C)C(=O)Nc1ccc2c(c1)NC(=O)CC2` (stereo in doubt) [Compound 3, Tert-butyl (S)-(4-(methylthio)-1-oxo-1-((2-oxo-1,2,3,4-tetrahydroquinolin-7-yl)amino)butan-2-yl)carbamate] displayed a melting point of 171 to 172 °C. For the same compound, the Ki in data set [1] turned out to be 8.5 µM. Further, the Ki in data set [2] is more than 100 µM. Moreover, affinity in data set [3] was put at a Ki of 42.6 µM. Besides, the Ki in data set [4] was more than 100 µM. In data set [5] (12.5 μg/ml), the “Antioxidant activity, %” value was found to be 0.9%. Moreover, the “Antioxidant activity, %” value in data set [5] (25 μg/ml) was determined as 0.3%.
`O=C1CCc2ccc(NC(=O)[C@H](CSc3ccccc3)NC(=O)OCc3ccccc3)cc2N1` (stereo in doubt) [Compound 4, Benzyl (R)-(1-oxo-1-((2-oxo-1,2,3,4-tetrahydroquinolin-7-yl)amino)-3-(phenylthio)propan-2-yl)carbamate]: the melting point lay within 150 to 151 °C. In addition, in data set [1], the Ki was determined as 5.7 µM. Further, in data set [2], the Ki was more than 100 µM. The same compound registered an inhibition constant Ki in data set [3] of 65.4 µM. The same compound came in with a Ki in data set [4] of more than 100 µM. The “Antioxidant activity, %” value in data set [5] (12.5 μg/ml) was found to be 2.5%. Also, the “Antioxidant activity, %” value in data set [5] (25 μg/ml) came out at 1.6%. In data set [5] (37.5 μg/ml), the “Antioxidant activity, %” value amounted to 0.9%. The “Antioxidant activity, %” value in data set [5] (62.5 μg/ml) turned out to be 2.2%. Besides, the “Antioxidant activity, %” value in data set [5] (125 μg/ml) was determined as 1.6%.
